Experiments:
Experiment in all cases: Mycelium radial growth inhibition on malt extract/peptone agar (MIC) and Kull synergism
Format in all cases: cell-based
Coniophora puteana = details: 26° C. agar
Experimental: (§1) Mycelium pieces were punched out of colonies of the wood-destroying organisms Coriolus versicolor, Poria placenta, Gloeophyllum trabeum and Cornophora puteana and incubated at 26° C. on a malt extract/peptone-containing nutrient agar. Here, the growth of the fungal threads with and without added active compound was compared. The stated minimum inhibitory concentration (MIC) is the active compound concentration at which the radial growth of the fungal threads is suppressed completely. Using the method described by Kull et al. (F. C. Kull, […]. Mayer, Applied Microbiology 9, 538 to 541, 1961), the synergism was determined. Here, the following relations apply: […]

Coriolus versicolor = details: for Qb = concentration of substance B which is the MIC: b = triadimefon alone; for Qa = concentration of substance A which is the MIC: 26° C. agar
Experimental: as §1

Gloeophyllum trabeum = test system: Gloeophyllum trabeum
Experimental: as §1

Poria placenta = details: 26° C. agar
Experimental: as §1

CC(C)(C)C(=O)C(Oc1ccc(Cl)cc1)n1cncn1 (racemic) [triadimefon, (±)-1-(4-chlorophenoxy)-3,3-dimethyl-1-(1H-1,2,4-triazol-1-yl)butan-2-one]
Qb = concentration of substance B which is the MIC (Coniophora puteana; b = triadimefon alone): 30 | Qb = concentration of substance B which is the MIC (Coriolus versicolor; 26° C. agar (Example 2)): 6 | Qb = concentration of substance B which is the MIC (Coriolus versicolor; 26° C. agar (Example 3)): 3 | Qb = concentration of substance B which is the MIC (Gloeophyllum trabeum; b = triadimefon alone, 26° C. agar): 30 | Qb = concentration of substance B which is the MIC (Poria placenta; b = triadimefon alone): 3

CC(C)(C)C(O)C(Oc1ccc(Cl)cc1)n1cncn1 (racemic) [triadimenol, (±)-1-(4-chlorophenoxy)-3,3-dimethyl-1-(1H-1,2,4-triazol-1-yl) butan-2-ole]
Qa = concentration of substance A which is the MIC (Gloeophyllum trabeum; a = triadimenol alone, 26° C. agar): 1 | Qa = concentration of substance A which is the MIC (Poria placenta; a = triadimenol alone): 1

CCCC1COC(Cn2cncn2)(c2ccc(Cl)cc2Cl)O1 (centres unmarked) [propiconazole]
Qa = concentration of substance A which is the MIC (Coriolus versicolor; a = propiconazole alone): 3 | Qa = concentration of substance A which is the MIC (Poria placenta; a = propiconazole alone): 1

CC(C)(C)C(O)(CCc1ccc(Cl)cc1)Cn1cncn1 (centres unmarked) [tebuconazole]
Qa = concentration of substance A which is the MIC (Coniophora puteana; a = tebuconazole alone): 6 | Qa = concentration of substance A which is the MIC (Coriolus versicolor; a = tebuconazole alone): 0.3 | Qa = concentration of substance A which is the MIC (Gloeophyllum trabeum; a = tebuconazole alone, 26° C. agar (Example 3)): 0.5 | Qb = concentration of substance B which is the MIC (Gloeophyllum trabeum; b = tebuconazole alone, 26° C. agar (Example 1)): 0.7 | Qb = concentration of substance B which is the MIC (Poria placenta; b = tebuconazole alone): 1

Source: patent US8334312B2, “Fungicidal mixtures for wood preservation” (LANXESS Deutschland GmbH, priority 2005, dated 2012)
